Each structure is given as a SMILES string. Active and inactive are the calls of the source.

For test [1], the target named is T1, Tyrosyl-DNA phosphodiesterase 2 (Homo sapiens, UniProt O95551).
T1 sequence (O95551 whole entry): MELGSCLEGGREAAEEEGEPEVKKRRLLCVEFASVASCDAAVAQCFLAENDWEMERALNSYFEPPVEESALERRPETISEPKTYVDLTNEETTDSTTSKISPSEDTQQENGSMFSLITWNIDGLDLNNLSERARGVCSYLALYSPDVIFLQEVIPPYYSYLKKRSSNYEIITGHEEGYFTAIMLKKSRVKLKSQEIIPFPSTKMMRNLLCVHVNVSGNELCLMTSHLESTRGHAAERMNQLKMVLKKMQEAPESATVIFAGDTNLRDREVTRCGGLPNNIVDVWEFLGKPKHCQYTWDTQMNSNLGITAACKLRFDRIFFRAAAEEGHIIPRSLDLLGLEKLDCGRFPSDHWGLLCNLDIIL
Kind of test: human TDP2 enzyme inhibitors, dose response, biochemical, epi absorbance, IC50 (AID 743297).

The subject of another test is Vero. Kind of test: Vero cell cytotoxicity, cytotoxicity control for flavivirus capping enzyme inhibitors (AID 588742). It is filed as functional. As to conditions: Chlorocebus sabaeus.
The target of test [2] is Ras and Rab interactor 1/Tyrosine-protein kinase ABL1 (Homo sapiens, UniProt P00519+Q13671). It is filed as functional.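 Further: biochemical TR-FRET dose-response test measuring inhibition of binding between Rin1 and Abl proteins.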
Test [3] has as its target Dual specificity tyrosine-phosphorylation-regulated kinase 1A (Rattus norvegicus, UniProt Q63470). It is filed as biochemical, Homo sapiens.
The target of the next test is Genome polyprotein (dengue virus type 2, UniProt P29990). Kind of test: Dengue-2 NS5 methyltransferase inhibitors, primary screen, biochemical, confirmation dose response (AID 588689). It counts as functional.
Test [4] has as its target Mitochondrial peptide methionine sulfoxide reductase (Bos taurus, UniProt P54149). The test is described as follows: Absorbance-based biochemical high throughput dose response assay for activators of Methionine sulfoxide reductase A (MsrA). It is filed as functional.
In test [5] the target is T2, Histone-lysine N-methyltransferase NSD2 (Homo sapiens, UniProt O96028).
T2 sequence (O96028 whole entry): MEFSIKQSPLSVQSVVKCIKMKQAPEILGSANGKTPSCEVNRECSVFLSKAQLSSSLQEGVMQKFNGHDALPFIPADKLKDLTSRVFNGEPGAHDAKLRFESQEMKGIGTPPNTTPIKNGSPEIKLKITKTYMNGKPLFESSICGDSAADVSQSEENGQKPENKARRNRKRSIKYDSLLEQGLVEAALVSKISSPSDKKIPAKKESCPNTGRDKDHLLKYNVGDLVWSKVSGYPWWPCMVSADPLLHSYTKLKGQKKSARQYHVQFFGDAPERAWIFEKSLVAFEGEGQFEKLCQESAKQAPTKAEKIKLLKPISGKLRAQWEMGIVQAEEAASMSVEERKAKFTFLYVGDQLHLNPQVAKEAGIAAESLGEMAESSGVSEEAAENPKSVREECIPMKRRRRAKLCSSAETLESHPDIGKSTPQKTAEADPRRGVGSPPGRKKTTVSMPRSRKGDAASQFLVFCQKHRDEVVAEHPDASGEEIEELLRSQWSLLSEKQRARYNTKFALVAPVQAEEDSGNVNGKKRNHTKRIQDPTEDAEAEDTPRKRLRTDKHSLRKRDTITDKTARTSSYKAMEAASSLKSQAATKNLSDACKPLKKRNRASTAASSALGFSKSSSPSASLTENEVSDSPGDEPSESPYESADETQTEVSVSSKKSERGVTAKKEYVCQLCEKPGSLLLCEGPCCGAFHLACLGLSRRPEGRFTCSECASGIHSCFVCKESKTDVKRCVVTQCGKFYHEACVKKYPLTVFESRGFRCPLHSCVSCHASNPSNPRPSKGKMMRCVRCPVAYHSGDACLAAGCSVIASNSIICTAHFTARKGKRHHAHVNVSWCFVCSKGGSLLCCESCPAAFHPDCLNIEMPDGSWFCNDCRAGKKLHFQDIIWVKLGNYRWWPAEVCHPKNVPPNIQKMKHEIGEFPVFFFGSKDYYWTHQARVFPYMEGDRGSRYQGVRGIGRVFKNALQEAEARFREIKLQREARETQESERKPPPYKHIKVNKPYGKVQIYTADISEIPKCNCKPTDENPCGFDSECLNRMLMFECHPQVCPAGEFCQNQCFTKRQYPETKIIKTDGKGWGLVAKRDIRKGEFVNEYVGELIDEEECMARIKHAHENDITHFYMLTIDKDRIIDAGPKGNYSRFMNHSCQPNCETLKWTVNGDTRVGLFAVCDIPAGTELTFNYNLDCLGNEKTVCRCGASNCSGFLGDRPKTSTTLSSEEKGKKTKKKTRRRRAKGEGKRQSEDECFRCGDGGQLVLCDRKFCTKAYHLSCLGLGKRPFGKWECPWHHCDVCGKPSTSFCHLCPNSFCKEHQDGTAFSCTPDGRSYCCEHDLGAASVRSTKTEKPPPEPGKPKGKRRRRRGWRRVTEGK
It counts as biochemical.

The next test has as its target T3, Cysteine protease ATG4B (Homo sapiens, UniProt Q9Y4P1).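 Further: Fluorescence-based dose-response confirmation assay measuring inhibition of ATG4B activity.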
T3 sequence (Q9Y4P1 whole entry): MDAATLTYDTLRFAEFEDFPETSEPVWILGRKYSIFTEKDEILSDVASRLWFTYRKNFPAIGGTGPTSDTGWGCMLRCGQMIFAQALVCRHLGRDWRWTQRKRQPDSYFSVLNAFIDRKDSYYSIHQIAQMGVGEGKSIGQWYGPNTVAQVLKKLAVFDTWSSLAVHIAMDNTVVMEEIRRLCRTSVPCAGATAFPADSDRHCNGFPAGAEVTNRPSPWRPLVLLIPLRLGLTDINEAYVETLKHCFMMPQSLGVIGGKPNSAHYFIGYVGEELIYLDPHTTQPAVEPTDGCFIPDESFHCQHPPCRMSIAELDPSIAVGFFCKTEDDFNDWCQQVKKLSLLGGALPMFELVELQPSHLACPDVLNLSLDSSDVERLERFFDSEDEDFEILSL
It counts as functional.

For another test, the target named is Paired box protein Pax-8 (Homo sapiens, UniProt Q06710). Kind of test: inhibitors of PAX8-driven TPO luciferase reporter, dose response, RMG-I cells, cherry-pick (AID 687027).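 Further: luciferase reporter driven by Pax8 target thyroperoxidase promoter measured by SteadyGlo luminescence.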 It counts as functional, cell-based.
Test [6] is described as follows: non-specific cell cytotoxicity, dose response, cytotoxicity control for PAX8 inhibitor project, plate reader, dry powder samples (AID 743021). It counts as functional, cell-based.
The target in the next test is Phospholipase A2 (Homo sapiens, UniProt P04054). It is filed as functional.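 Further: confirmatory dose-response counterscreen on phospholipase A2, testing hits that came from an ultra-high-throughput screen for ATG4B inhibitors.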
A short description of test [7]: THP-1 cell cytotoxicity, dose response, cytotoxicity control for Vif-APOBEC3G degradation inhibitor project, THP-1 cells (AID 1117359). It counts as functional. As to conditions: Human immunodeficiency virus 1, THP-1.
The next test addresses T4, Hexokinase HKDC1 (Homo sapiens, UniProt Q2TB90).
T4 sequence (Q2TB90 whole entry): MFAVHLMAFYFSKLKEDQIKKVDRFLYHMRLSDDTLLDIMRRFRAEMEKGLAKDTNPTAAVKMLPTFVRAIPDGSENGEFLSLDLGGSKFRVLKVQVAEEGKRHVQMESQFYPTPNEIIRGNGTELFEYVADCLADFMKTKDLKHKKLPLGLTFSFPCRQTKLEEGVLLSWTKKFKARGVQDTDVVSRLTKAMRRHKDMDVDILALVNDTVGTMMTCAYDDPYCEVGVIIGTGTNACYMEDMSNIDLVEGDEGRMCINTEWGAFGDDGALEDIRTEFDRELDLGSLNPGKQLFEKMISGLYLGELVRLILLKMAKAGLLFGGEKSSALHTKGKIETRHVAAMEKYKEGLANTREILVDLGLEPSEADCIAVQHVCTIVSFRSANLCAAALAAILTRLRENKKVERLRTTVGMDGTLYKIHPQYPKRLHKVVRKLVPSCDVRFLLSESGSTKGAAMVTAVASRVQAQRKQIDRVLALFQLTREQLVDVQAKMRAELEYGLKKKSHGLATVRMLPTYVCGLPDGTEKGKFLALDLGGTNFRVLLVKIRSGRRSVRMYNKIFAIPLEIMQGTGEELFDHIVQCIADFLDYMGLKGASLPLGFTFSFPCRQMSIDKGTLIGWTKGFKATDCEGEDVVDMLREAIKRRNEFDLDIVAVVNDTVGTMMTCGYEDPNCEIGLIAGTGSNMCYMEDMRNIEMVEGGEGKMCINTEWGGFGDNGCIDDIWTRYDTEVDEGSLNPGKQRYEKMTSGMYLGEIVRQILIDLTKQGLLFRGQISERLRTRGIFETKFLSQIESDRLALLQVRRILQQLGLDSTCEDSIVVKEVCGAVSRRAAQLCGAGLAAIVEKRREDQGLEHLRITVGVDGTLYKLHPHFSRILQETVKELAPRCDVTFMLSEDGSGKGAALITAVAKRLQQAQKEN
The test is described as follows: HKDC1 hexokinase inhibitors, dose response, biochemical, W721R variant (AID 504729). It is filed as functional.

Chain of Mitochondrial peptide methionine sulfoxide reductase (P54149 whole entry): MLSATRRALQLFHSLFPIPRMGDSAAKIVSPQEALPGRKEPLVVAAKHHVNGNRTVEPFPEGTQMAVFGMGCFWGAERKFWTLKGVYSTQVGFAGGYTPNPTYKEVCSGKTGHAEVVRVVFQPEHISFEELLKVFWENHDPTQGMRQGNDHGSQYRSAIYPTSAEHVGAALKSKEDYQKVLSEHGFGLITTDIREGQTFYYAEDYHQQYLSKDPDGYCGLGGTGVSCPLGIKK
Chain of Ras and Rab interactor 1/Tyrosine-protein kinase ABL1 (P00519 whole entry): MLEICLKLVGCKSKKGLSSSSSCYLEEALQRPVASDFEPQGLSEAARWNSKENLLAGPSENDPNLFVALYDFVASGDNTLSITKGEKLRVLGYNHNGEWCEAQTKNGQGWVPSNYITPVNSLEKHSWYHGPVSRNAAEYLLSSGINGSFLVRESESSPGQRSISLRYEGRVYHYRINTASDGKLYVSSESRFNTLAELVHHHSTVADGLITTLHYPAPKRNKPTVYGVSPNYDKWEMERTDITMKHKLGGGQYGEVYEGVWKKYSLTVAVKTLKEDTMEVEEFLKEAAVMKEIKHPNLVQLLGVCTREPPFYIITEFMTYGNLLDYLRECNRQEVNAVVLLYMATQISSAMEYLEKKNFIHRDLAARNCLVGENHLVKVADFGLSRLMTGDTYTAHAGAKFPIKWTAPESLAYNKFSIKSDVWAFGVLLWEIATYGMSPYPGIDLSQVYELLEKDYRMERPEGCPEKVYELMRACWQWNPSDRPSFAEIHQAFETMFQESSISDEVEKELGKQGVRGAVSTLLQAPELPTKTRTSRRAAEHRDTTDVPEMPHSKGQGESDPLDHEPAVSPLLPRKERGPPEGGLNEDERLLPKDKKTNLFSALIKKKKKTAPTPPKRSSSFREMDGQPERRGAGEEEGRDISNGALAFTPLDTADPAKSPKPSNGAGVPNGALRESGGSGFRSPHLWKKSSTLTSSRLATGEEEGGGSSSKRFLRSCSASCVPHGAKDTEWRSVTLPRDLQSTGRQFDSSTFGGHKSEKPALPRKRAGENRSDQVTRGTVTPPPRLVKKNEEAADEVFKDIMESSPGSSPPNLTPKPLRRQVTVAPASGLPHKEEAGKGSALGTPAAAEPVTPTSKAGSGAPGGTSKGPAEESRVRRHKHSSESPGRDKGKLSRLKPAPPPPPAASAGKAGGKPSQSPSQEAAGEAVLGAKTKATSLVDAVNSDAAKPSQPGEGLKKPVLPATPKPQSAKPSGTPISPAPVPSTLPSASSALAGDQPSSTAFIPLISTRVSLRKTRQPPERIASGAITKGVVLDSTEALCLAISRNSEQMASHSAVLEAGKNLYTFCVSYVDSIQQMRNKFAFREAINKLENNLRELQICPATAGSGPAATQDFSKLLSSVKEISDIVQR
Chain of Ras and Rab interactor 1/Tyrosine-protein kinase ABL1 (Q13671 whole entry): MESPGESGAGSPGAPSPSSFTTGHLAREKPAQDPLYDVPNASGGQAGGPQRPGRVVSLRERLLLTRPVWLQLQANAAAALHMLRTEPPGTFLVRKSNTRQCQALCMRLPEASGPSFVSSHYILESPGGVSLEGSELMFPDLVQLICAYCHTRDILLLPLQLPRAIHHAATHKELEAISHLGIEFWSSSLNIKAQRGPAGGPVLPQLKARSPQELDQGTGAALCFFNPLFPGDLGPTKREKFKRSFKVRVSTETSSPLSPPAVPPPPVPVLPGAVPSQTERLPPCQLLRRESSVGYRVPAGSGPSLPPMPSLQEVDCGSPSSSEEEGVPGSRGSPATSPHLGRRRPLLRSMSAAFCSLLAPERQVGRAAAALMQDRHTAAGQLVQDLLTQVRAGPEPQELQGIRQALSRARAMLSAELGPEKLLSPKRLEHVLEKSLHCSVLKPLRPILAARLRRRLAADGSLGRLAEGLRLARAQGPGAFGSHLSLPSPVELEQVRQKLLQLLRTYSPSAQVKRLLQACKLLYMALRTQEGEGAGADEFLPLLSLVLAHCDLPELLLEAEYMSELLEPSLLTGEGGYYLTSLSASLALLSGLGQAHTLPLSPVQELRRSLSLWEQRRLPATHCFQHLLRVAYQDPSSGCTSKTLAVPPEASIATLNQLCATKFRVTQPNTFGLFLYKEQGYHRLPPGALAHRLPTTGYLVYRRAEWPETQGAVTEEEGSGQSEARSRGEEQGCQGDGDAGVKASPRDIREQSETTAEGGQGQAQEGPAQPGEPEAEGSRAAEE
Chain of Paired box protein Pax-8 (Q06710 whole entry): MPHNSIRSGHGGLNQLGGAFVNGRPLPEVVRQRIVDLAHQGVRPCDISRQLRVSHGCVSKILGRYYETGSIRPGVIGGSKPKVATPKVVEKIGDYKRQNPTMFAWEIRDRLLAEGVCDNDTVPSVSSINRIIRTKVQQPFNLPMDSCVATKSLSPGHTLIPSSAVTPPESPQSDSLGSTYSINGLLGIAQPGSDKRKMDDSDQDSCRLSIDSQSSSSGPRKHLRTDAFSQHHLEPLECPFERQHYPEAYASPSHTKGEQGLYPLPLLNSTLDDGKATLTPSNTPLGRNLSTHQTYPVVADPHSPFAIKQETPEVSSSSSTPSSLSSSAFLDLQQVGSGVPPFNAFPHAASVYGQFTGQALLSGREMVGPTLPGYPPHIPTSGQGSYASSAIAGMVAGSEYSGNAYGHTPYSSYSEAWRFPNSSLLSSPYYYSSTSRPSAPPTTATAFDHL
Chain of Genome polyprotein (P29990 2492-3391 limits assumed): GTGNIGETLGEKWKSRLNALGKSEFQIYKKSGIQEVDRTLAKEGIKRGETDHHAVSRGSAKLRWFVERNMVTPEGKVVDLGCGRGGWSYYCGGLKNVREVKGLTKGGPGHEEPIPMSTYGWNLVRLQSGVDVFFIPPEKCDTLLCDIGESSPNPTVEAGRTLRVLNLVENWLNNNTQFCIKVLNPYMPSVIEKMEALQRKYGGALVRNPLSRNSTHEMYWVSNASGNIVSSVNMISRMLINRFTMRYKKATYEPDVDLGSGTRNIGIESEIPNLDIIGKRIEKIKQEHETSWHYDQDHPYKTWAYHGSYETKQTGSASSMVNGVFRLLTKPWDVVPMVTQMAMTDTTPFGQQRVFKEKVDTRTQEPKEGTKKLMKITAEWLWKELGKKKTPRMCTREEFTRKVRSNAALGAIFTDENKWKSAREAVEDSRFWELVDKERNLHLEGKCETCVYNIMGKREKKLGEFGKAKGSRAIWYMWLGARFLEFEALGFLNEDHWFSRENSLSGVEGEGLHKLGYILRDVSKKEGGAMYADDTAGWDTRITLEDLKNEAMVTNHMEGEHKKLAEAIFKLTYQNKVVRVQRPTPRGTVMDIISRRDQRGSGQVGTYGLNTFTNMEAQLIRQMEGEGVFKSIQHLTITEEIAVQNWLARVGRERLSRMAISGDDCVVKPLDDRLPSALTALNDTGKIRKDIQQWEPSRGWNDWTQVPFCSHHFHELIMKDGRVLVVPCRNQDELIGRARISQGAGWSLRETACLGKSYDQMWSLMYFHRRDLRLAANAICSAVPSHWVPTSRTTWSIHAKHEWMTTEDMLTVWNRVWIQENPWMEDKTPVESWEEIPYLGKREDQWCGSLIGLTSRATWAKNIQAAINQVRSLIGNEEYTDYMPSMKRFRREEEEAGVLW
Chain of Phospholipase A2 (P04054 whole entry): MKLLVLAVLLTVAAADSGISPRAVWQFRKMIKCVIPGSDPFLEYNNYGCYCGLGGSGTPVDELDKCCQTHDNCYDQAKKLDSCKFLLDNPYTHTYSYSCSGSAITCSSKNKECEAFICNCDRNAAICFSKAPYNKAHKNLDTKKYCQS

With `COC1=CC(=O)c2c(ccc3ncnc(N)c23)C1=O`, the IC50 in [1] is 0.842 µM (active); in test [2] it was > 73.4 µM (inactive); at Genome polyprotein, 62.4 µM (active); on Cysteine protease ATG4B it was 6.81 µM (active); at Phospholipase A2, > 80 µM (inactive); on Hexokinase HKDC1 it was 1.56 µM (active). Besides, the CC50 with Vero is 4.63 µM (active); in test [7], 10.4 µM (active). The AC50 is 2.53 µM (active) in test [3], 1.28 µM (active) in [5], 1.06 µM (active) at Paired box protein Pax-8 and 9.49 µM (active) in [6]. Besides, the EC50 in test [4] is 14.1 µM (inactive).

Values taken from ChEMBL document CHEMBL1201862, “PubChem BioAssay data set” (2004).
